# In article PMC10350924, “Design, Synthesis, and Pharmacological Characterization of a Potent Soluble Epoxide Hydrolase Inhibitor for the Treatment of Acute Pancreatitis” (Journal of Medicinal Chemistry, 2023):
# Experiments:
# Human recombinant sEH = target: T1, Human recombinant sEH (Homo sapiens, UniProt P34913); test: Cell-free sEH activity (PHOME fluorescence); format: biochemical; settings: human isolated sEH
# T1 construct: made in house; host or cells: Sf9 insect cells (recombinant baculovirus)
# T1 sequence (P34913 1-555): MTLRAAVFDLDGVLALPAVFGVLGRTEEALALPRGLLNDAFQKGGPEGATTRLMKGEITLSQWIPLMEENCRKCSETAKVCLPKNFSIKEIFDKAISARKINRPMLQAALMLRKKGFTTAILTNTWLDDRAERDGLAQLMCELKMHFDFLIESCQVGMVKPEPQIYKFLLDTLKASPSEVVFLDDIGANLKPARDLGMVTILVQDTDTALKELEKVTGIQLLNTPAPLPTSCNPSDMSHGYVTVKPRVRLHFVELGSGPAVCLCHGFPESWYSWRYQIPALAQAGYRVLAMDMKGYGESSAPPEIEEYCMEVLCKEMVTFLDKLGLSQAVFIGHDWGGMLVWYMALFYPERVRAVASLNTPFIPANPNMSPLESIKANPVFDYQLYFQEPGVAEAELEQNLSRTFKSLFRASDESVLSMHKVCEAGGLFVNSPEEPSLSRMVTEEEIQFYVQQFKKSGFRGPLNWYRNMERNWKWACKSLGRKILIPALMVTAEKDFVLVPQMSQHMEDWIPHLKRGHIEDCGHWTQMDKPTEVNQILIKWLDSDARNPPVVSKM
# Protocol: Human recombinant sEH was expressed in Sf9 insect cells and purified by affinity chromatography. […] Elution with 4-fluorochalcone oxide in PBS pH 7.4 with 1 mM dithiothreitol and 1 mM EDTA yielded sEH, which was dialyzed and concentrated. Purified sEH (60 ng) in 25 mM Tris HCl pH 7 with 0.1 mg/mL bovine serum albumin (BSA) was preincubated with the vehicle (DMSO) or test compounds for 1 min at room temperature. The sEH substrate PHOME (20 μM, Cayman Chemicals) was added to start the enzymatic reaction, which was stopped after 60 min in the dark by the addition of ZnSO4 (200 mM).
# 5-LOX = target: T2, 5-LOX (Homo sapiens, UniProt P09917); test: Cell-free 5-LOX activity assay; format: biochemical; design: made in house; host or cells: Escherichia coli Bl21 (DE3); settings: human isolated 5-LOX
# T2 sequence (P09917 1-674): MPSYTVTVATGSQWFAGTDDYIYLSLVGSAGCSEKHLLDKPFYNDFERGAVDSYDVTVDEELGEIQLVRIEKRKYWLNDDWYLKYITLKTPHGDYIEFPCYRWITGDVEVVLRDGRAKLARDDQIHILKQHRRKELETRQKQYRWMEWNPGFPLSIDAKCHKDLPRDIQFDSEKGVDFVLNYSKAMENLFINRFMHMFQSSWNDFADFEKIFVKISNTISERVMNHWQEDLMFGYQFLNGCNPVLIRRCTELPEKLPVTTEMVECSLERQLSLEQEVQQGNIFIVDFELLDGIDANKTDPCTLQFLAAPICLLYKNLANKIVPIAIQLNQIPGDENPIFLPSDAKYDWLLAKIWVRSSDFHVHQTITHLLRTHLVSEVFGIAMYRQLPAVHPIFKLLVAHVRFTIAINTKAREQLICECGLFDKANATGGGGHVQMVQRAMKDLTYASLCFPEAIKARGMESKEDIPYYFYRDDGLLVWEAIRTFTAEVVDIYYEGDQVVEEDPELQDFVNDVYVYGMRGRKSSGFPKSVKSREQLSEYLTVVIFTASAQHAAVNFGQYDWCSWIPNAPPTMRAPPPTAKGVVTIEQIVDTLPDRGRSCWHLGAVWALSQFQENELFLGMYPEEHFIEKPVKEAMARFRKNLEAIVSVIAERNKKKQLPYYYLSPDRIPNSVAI
# Protocol: Human recombinant 5-LOX was expressed in Escherichia coli Bl21 (DE3) cells that were transformed with the plasmid pT3-5LO (wt 5-LOX) and purified on an adenosine triphosphate (ATP)-agarose column by affinity chromatography.[40],[41] In a first step, E. coli was lysed in 50 mM triethanolamine/HCl pH 8.0 with ethylenediamine tetraacetic acid (EDTA) (5 mM), soybean trypsin inhibitor (60 μg/mL), phenylmethanesulfonyl fluoride (1 mM), dithiothreitol (1 mM), and lysozyme (1 mg/mL) and sonicated 3 times for 15 s. The homogenate was centrifuged at 40,000g for 20 min at 4 °C. The supernatant was transferred to an ATP-agarose column (Sigma-Aldrich, Deisenhofen, Germany), which was sequentially washed with phosphate-buffered saline (PBS) pH 7.4, 1 mM EDTA, 50 mM phosphate buffer pH 7.4, 0.5 M NaCl, 1 mM EDTA, and finally 50 mM phosphate buffer pH 7.4 plus 1 mM EDTA. The enzyme was eluted with 50 mM phosphate buffer pH 7.4, 1 mM EDTA, and 20 mM ATP.
# 5-LOX product formation was started by the addition of 20 μM arachidonic acid (Sigma-Aldrich) and CaCl2 (2 mM) and stopped by the addition of an equal volume of ice-cold methanol containing PGB1 (200 ng) as internal standard after 10 min at 37 °C.
# Mouse plasma stability = format: in vitro ADME; settings: 37 °C, 5 μM
# Protocol: Mouse plasma is warmed to 37 °C for 10 min, mixed, and centrifuged to pellet any aggregated protein. Biotransformation is initiated by adding 1.25 μL of compound solution (5 μM final incubation concentration), and the incubation was carried out at 37 °C for 120 min in a Thermomixer comfort (Eppendorf, Hamburg, Germany). At each specified time point (0, 60, and 120 min), compounds were removed into 200 μL of ice-cold methanol containing IS to stop degradation. Finally, the concentration of the test compound was quantified by LC-MS. All experiments were performed in triplicate. Procaine (low stability) and procainamide (high stability) were used as controls.
IC50 (Human recombinant sEH),IC50 (5-LOX),mouse plasma stability (Mouse plasma stability; 1.0 h),mouse plasma stability (Mouse plasma stability; 2.0 h),Compound
7.22 ± 1.11 nM,71 ± 16 nM,97.3 ± 0.7%,100.7 ± 2.3%,"O=C(Nc1ccc2c(c1)CCN2Cc1ccc(F)cc1)NC12C[C@H]3C[C@@H](C1)C[C@@H](C2)C3 [Compound 6, 1-((3S,5S,7S)-Adamantan-1-yl)-3-(1-(4-fluorobenzyl)indolin-5-yl)urea]"
1.75 ± 0.593 nM,> 1000 nM,100.3 ± 0.2%,102.2 ± 4.8%,"O=C(NCC12C[C@H]3C[C@@H](C1)C[C@@H](C2)C3)Nc1ccc2c(ccn2Cc2ccc(F)cc2)c1 [Compound 27, 1-(((3R,5R,7R)-Adamantan-1-yl)methyl)-3-(1-(4-fluorobenzyl)-1H-indol-5-yl)urea]"
1.1 ± 0.4 nM,> 1000 nM,96.2 ± 3.4%,97.0 ± 2.3%,"O=C(NCC12C[C@H]3C[C@@H](C1)C[C@@H](C2)C3)Nc1ccc2c(ccn2CCc2ccc(F)cc2)c1 [Compound 30, 1-(((3R,5R,7R)-Adamantan-1-yl)methyl)-3-(1-(4-fluorophenethyl)-1H-indol-5-yl)urea]"
2.6 ± 0.4 nM,> 1000 nM,98.2 ± 2.0%,96.2 ± 2.8%,"O=C(NCC12C[C@H]3C[C@@H](C1)C[C@@H](C2)C3)Nc1ccc2c(ccn2C(=O)c2ccc(F)cc2)c1 [Compound 36, 1-(((3R,5R,7R)-Adamantan-1-yl)methyl)-3-(1-(4-fluorobenzoyl)-1H-indol-5-yl)urea]"

Compound,IC50 (Human recombinant sEH),IC50 (5-LOX),mouse plasma stability (Mouse plasma stability; 1.0 h),mouse plasma stability (Mouse plasma stability; 2.0 h)
"CC(C)c1ccc(Cn2ccc3cc(NC(=O)NCC45C[C@H]6C[C@@H](C4)C[C@@H](C5)C6)ccc32)cc1 [Compound 28, 1-(((3R,5R,7R)-Adamantan-1-yl)methyl)-3-(1-(4-isopropylbenzyl)-1H-indol-5-yl)urea]",2 ± 1.1 nM,> 1000 nM,98.4 ± 3.3%,101.3 ± 3.8%
